Measured values taken from patent US10894807B2 (Siemens Medical Solutions USA, Inc., priority 2011, dated 2021).
Like-named read-outs stand apart in the source and are kept apart here.

Target: human PSMA (Homo sapiens (Human), UniProt Q04609)
Test: Enzymatic assay for in vitro evaluation of PSMA inhibitors (fluorescent assay of PSMA activity, NAAG substrate, OPA detection of glutamate)
Format: biochemical

human PSMA, sequence (Q04609 whole entry): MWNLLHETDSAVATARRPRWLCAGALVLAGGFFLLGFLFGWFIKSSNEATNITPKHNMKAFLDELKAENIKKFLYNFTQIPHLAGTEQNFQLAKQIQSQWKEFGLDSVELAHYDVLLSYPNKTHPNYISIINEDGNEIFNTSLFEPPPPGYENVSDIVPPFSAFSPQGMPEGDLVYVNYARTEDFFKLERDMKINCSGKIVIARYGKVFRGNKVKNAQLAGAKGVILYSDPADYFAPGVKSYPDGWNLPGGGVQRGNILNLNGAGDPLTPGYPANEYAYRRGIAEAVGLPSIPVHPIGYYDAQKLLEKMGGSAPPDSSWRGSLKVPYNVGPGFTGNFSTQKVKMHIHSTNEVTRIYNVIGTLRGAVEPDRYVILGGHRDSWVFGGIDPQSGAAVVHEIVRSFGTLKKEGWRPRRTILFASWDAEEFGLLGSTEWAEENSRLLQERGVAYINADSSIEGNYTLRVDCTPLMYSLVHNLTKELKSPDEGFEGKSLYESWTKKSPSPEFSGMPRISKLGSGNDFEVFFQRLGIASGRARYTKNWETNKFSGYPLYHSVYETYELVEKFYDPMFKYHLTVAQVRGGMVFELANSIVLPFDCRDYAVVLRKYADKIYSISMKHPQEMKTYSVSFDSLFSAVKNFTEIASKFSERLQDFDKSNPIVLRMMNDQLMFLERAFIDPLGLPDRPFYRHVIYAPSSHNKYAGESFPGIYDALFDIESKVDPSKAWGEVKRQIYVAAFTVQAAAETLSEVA

Compound	PSMA Blkg % (10 μM) (compound at 10 μM)	Ki	PSMA Blkg % (10 μM)
N#C/N=C(/N[C@@H](CCCCNC(=O)c1ccc(-n2cc(CCCF)nn2)cc1)C(=O)O)N[C@@H](CCC(=O)O)C(=O)O [P153, (S)-2-(3-((S)-1-Carboxy-5-(4-(4-(3-fluoropropyl)-1H-1,2,3-triazol-1-yl)benzamido)pentyl)-2-cyanoguanidino)pentanedioic Acid]	63%	–	–
O=C(O)CC[C@H](NC(=O)CN(O)C(=O)CCCc1ccc(F)cc1)C(=O)O [P154, (S)-2-(2-(4-(4-Fluorophenyl)-N-hydroxybutanamido)acetamido)pentanedioic Acid]	50%	–	–
O=C(O)CC[C@H](NC(=O)N[C@@H](CCCCNC(=O)c1ccc(F)cc1)C(=O)O)C(=O)O [P155]	97%	3.1 nM	–
CN(C(=O)N[C@@H](CCC(=O)O)C(=O)O)[C@@H](CCCCNC(=O)c1ccc(F)cc1)C(=O)O [P156, (S)-2-(3-((S)-1-Carboxy-5-(4-fluorobenzamido)pentyl)-3-methylureido)pentanedioic Acid]	87%	219 nM	–
CC(F)C(=O)Nc1ccc(C(=O)NCCCC[C@@H](C(=O)O)N(O)C(=O)N[C@@H](CCC(=O)O)C(=O)O)cc1 (stereo partly drawn) [P157, (2S)-2-(3-((1S)-1-Carboxy-5-(4-(2-fluoropropanamido)benzamido)pentyl)-3-hydroxyureido)pentanedioic Acid]	79%	> 313 nM	–
CC(F)C(=O)Nc1ccc(C(=O)NCCCCC(C(=O)O)N(C)C(=O)N[C@@H](CCC(=O)O)C(=O)O)cc1 (stereo partly drawn) [P158, (2S)-2-(3-((S)-1-Carboxy-5-(4-(2-fluoropropanamido)benzamido)pentyl)-3-methylureido)pentanedioic Acid]	99%	34.4 nM	–
CN(C(=O)[C@H](CC(=O)O)NC(=O)c1ccc(-n2cc(CCCF)nn2)cc1)[C@@H](CCC(=O)O)C(=O)O [P159, (S)-2-((S)-3-Carboxy-2-(4-(4-(3-fluoropropyl)-1H-1,2,3-triazol-1-yl)benzamido)-N-methylpropanamido)pentanedioic Acid]	39%	–	–
CN(C(=O)N[C@@H](CCC(=O)O)C(=O)O)[C@@H](CCCCNC(=O)c1ccc(OCCF)cc1)C(=O)O [P161]	96%	–	–
O=C(O)CC[C@@H](C(=O)O)N(O)C(=O)N[C@@H](CCCCNC(=O)c1ccc(F)cc1)C(=O)O [P162, (S)-2-(3-((S)-1-Carboxy-5-(4-fluorobenzamido)pentyl)-1-hydroxyureido)pentanedioic Acid]	79%	> 531 nM	–
CN(C(=O)[C@H](CC(=O)O)NC(=O)c1ccc(F)cc1)[C@@H](CCC(=O)O)C(=O)O [P163, (S)-2-((S)-3-Carboxy-2-(4-fluorobenzamido)-N-methylpropanamido)pentanedioic Acid]	0%	–	–
O=C(O)CC[C@H](NC(=O)N(O)[C@@H](CCCCNC(=O)c1ccc(NC(=O)c2ccc(F)nc2)cc1)C(=O)O)C(=O)O [P164, (S)-2-(3-((S)-1-Carboxy-5-(4-(6-fluoronicotinamido)benzamido)pentyl)-3-hydroxyureido)pentanedioic Acid]	80%	> 407 nM	–
O=C(O)/C=C/C(=O)N[C@@H](CCC(=O)O)C(=O)O [P165]	11%	–	–
O=C(O)CC[C@H](NC(=O)N(O)[C@@H](CCCCNC(=O)Cn1cc(CCCF)nn1)C(=O)O)C(=O)O [P166, (S)-2-(3-((S)-1-Carboxy-5-(2-(4-(3-fluoropropyl)-1H-1,2,3-triazol-1-yl)acetamido)pentyl)-3-hydroxyureido)pentanedioic Acid]	87%	> 375 nM	–
O=C(O)CC[C@H](NC(=O)N(O)[C@@H](CCCCNC(=O)c1ccc(OCCF)cc1)C(=O)O)C(=O)O [P167, (S)-2-(3-((S)-1-Carboxy-5-(4-(2-fluoroethoxy)benzamido)pentyl)-3-hydroxyureido)pentanedioic Acid]	93%	> 657 nM	–
C#Cc1ccc(C(=O)NCCCC[C@@H](C(=O)O)N(O)C(=O)N[C@@H](CCC(=O)O)C(=O)O)cc1 [P168, (S)-2-(3-((S)-1-Carboxy-5-(4-ethynylbenzamido)pentyl)-3-hydroxyureido)pentanedioic Acid]	98%	–	–
O=C(O)CC[C@H](NC(=O)N(O)[C@@H](CCCCNC(=O)c1ccc(F)cc1)C(=O)O)C(=O)O [P169, (S)-2-(3-((S)-1-Carboxy-5-(4-fluorobenzamido)pentyl)-3-hydroxyureido)pentanedioic Acid]	79%	156 nM	–
CN(C(=O)[C@H](CC(=O)O)NC(=O)CCc1ccc(-n2cc(CCCF)nn2)cc1)[C@@H](CCC(=O)O)C(=O)O [P170, (S)-2-((S)-3-Carboxy-2-(3-(4-(4-(3-fluoropropyl)-1H-1,2,3-triazol-1-yl)phenyl)propanamido)-N-methylpropanamido)pentanedioic Acid]	58%	–	–
O=C(O)CC[C@H](NC(=O)N(O)C(CCCCNC(=O)c1ccc(NC(=O)c2ccc(F)cc2)cc1)C(=O)O)C(=O)O (stereo partly shown) [P171]	87%	–	–

Compound	PSMA Blkg % (10 μM) (compound at 10 μM)	Ki	PSMA Blkg % (10 μM)
CN(C(=O)N[C@@H](CCC(=O)O)C(=O)O)[C@@H](CCCCn1cc(COCCOCCNc2ccc([N+](=O)[O-])cc2[N+](=O)[O-])nn1)C(=O)O [P172, (S)-2-(3-((S)-1-Carboxy-5-(4-((2-(2-(2,4-dinitrophenylamino)ethoxy)ethoxy)methyl)-1H-1,2,3-triazol-1-yl)pentyl)-3-methylureido)pentanedioic Acid]	–	313 nM	–
CN(C(=O)N[C@@H](CCC(=O)O)C(=O)O)[C@@H](CCCCn1cc(CCCF)nn1)C(=O)O [P173, (S)-2-(3-((S)-1-Carboxy-5-(4-(3-fluoropropyl)-1H-1,2,3-triazol-1-yl)pentyl)-3-methylureido)pentanedioic Acid]	31%	–	–
CN(C(=O)[C@H](CC(=O)O)NC(=O)COCCNC(=O)c1ccc(F)cc1)[C@@H](CCC(=O)O)C(=O)O [P174, (S)-2-((S)-3-Carboxy-2-(2-(2-(4-fluorobenzamido)ethoxy)acetamido)-N-methylpropanamido)pentanedioic Acid]	1%	–	–
CN(C(=O)N[C@@H](CCC(=O)O)C(=O)O)[C@@H](CCCCNC(=O)NCc1ccccc1)C(=O)O [P175, (9S,13S)-10-Methyl-3,11-dioxo-1-phenyl-2,4,10,12-tetraazapentadecane-9,13,15-tricarboxylic Acid]	18%	–	–
CN(C(=O)N[C@@H](CCC(=O)O)C(=O)O)[C@@H](CCCCNC(=O)OCc1ccc([N+](=O)[O-])cc1)C(=O)O [P176, (9S,13S)-10-Methyl-1-(4-nitrophenyl)-3,11-dioxo-2-oxa-4,10,12-triazapentadecane-9,13,15-tricarboxylic Acid]	77%	–	–
Cc1ccc(S(=O)(=O)NCCCC[C@@H](C(=O)O)N(C)C(=O)N[C@@H](CCC(=O)O)C(=O)O)cc1 [P177, (S)-2-(3-((S)-1-Carboxy-5-(4-methylphenylsulfonamido)pentyl)-3-methylureido)pentanedioic Acid]	38%	–	–
O=C(O)CC[C@H](NS(=O)(=O)NC(=O)OCc1ccccc1)C(=O)O [P178, (S)-2-((N-((Benzyloxy)carbonyl)sulfamoyl)amino)pentanedioic Acid]	1%	–	–
O=C(O)CC[C@@H](C(=O)O)N(O)S(=O)(=O)NC(=O)OCc1ccccc1 [P179, (S)-2-((N-((Benzyloxy)carbonyl)sulfamoyl)(hydroxy)amino)pentanedioic Acid]	4%	–	–
NS(=O)(=O)N(OC(=O)OCc1ccccc1)[C@@H](CCC(=O)O)C(=O)O [P180]	5%	–	–
[N-]=[N+]=Nc1ccc(CCCC(=O)NS(=O)(=O)N[C@@H](CCC(=O)O)C(=O)O)cc1 [P181, (S)-2-((N-(4-(4-Azidophenyl)butanoyl)sulfamoyl)amino)pentanedioic Acid]	39%	–	–
O=C(O)CC[C@H](NC(=O)N(O)[C@@H](CCCCNC(=O)c1ccc(F)nc1)C(=O)O)C(=O)O [P182, (S)-2-(3-((S)-1-Carboxy-5-(6-fluoronicotinamido)pentyl)-3-hydroxyureido)pentanedioic Acid]	92%	–	–
[N-]=[N+]=NCCCCC(=O)NS(=O)(=O)N[C@@H](CCC(=O)O)C(=O)O [P183, (S)-2-((N-(5-Azidopentanoyl)sulfamoyl)amino)pentanedioic Acid]	36%	–	–
CN(C(=O)N[C@@H](CCC(=O)O)C(=O)O)[C@@H](CCCCNCc1ccc(F)cc1)C(=O)O [P184, (S)-2-(3-((S)-1-Carboxy-5-(4-fluorobenzylamino)pentyl)-3-methylureido)pentanedioic Acid]	10%	–	–
CC(=O)Oc1ccc2c(c1)Oc1cc(OC(C)=O)ccc1C21OC(=O)c2ccc(C(=O)NCCCC[C@H](NC(=O)N[C@@H](CCC(=O)O)C(=O)O)C(=O)O)cc21 [P185, (S)-2-(3-((S)-1-Carboxy-5-(3′,6′-diacetoxy-3-oxo-3H-spiro[isobenzofuran-1,9′-xanthen]-6-ylcarboxamido)pentyl)ureido)pentanedioic Acid]	–	–	99%
CC(F)C(=O)Nc1ccc(C(=O)NCCCC[C@H](NC(=O)N(O)[C@@H](CCC(=O)O)C(=O)O)C(=O)O)cc1 (stereo partly drawn) [P186, (S)-2-(3-((S)-1-Carboxy-5-(4-(2-fluoropropanamido)benzamido)pentyl)-1-hydroxyureido)pentanedioic Acid]	85%	–	–
O=C(O)CC[C@H](NC(=O)N[C@@H](CCCCn1cc(CCCF)nn1)C(=O)O)C(=O)O [P188, (S)-2-(3-((S)-1-Carboxy-5-(4-(3-fluoropropyl)-1H-1,2,3-triazol-1-yl)pentyl)ureido)-pentanedioic Acid]	99%	6.6 nM	–
O=C(O)C(Cn1cc(CCCF)nn1)CP(=O)(O)O (stereo not shown) [P189, 3-(4-(3-Fluoropropyl)-1H-1,2,3-triazol-1-yl)-2-(phosphonomethyl)propanoic Acid]	–	> 688 nM	–
O=C(O)C(Cn1ccnn1)CP(=O)(O)O (stereo not shown) [P190, 2-((1H-1,2,3-Triazol-1-yl)methyl)-3-phosphonopropanoic Acid]	–	188 nM	–
